Measured values published in patent US20260240869A1, “ANTIPSEUDOMONAL FUSIDIC ACID COMPOUNDS” (priority 2022, published 2026).
Values after ≈ are worked out from the molar mass of the structure shown. Like-named read-outs stand apart in the source and are kept apart here.

What was measured:
[1] = tested on: clinical isolates of P. aeruginosa; assay: MIC against panel of clinical isolates of P. aeruginosa; format: cell-based, Pseudomonas aeruginosa; details: for MIC: Pseudomonas aeruginosa, read-out: MIC
Procedure: Antimicrobial Susceptibility Tests. Susceptibility testing was performed in biological triplicate, using the microdilution broth method as outlined by the Clinical and Laboratory Standards Institute. Bacteria were cultured with cation-adjusted Meuller-Hinton broth (Sigma-Aldrich; catalogue number: 90922) or Luria-Bertani (LB) broth (Lennox) in round-bottom 96-well plates (Corning; catalogue number: 3788).

[2] = tested on: E. coli MG1655; assay: LC-MS/MS whole-cell accumulation assay, E. coli MG1655; format: cell-based; details: E. coli MG1655; accumulation of FA reported (Table 8)
Procedure: Accumulation Assay. The accumulation assay was performed in triplicate in batches of ten samples, with each batch containing tetracycline or ciprofloxacin as a positive control. P. aeruginosa PAO1, PAO1 A6, PA14, PA14 A40, and PA1280, and E. coli MG1655 were used in these experiments. For each replicate, 2.5 mL (E. coli) or 5 mL (P. aeruginosa) of an overnight culture was diluted into 250 mL of fresh Luria-Bertani broth (Lennox) or Tryptic Soy Broth (TSB) and grown at 37° C. with shaking to an optical density (OD600) of 0.55-0.60. The bacteria were pelleted at 3220 r.c.f. for 10 min at 4° C., and the supernatant was discarded. The pellets were resuspended in 40 mL of phosphate buffered saline (PBS) and pelleted as before, and the supernatant was discarded. The pellets were resuspended in 8.8 mL of fresh PBS and aliquoted into ten, 1.5 mL Eppendorf tubes (875 μL each). The number of colony-forming units (CFUs) was determined by a calibration curve. The samples were equilibrated at 37° C. with shaking for 5 min; compound was added (final concentration=50 μM), and then the samples were incubated at 37° C. with shaking for either 10 min. These time points were short enough to minimize metabolic and growth changes (no changes in OD600 or CFU count observed). After incubation, 800 μL of the cultures was carefully layered on 700 μL of silicone oil (9:1 AR20/Sigma High Temperature, cooled to −78° C.). Bacteria were pelleted through the oil by centrifuging at 13 000 r.c.f. for 2 min at room temperature (with the supernatant remaining above the oil); the supernatant and oil were then removed by pipetting. To lyse the samples, each pellet was dissolved in […] of water, and then, they were subjected to three (E. coli) or four (P. aeruginosa) freeze-thaw cycles of 3 min in liquid nitrogen followed by 3 min in a water bath at 65° C. P. aeruginosa samples were then treated with 50 µM DNase and RNase and incubated at 37° C. for 15 minutes. The lysates were pelleted at 13 000 r.c.f. for 2 min at room temperature, and the supernatant was collected ([…]). The debris was resuspended in 100 μL of methanol and pelleted as before. The supernatants were removed and combined with the previous supernatants collected. Finally, the remaining debris was removed by centrifuging at 20 000 r.c.f. for 10 min at room temperature. Supernatants were analyzed by LC-MS/MS.
Samples were analyzed with the 5500 QTRAP LC/MS/MS system (AB Sciex) with a 1200 series HPLC system (Agilent Technologies) including a degasser, an autosampler, and a binary pump. Liquid chromatography separation was performed on an Agilent SB-Aq column (4.6×50 mm, 5 μm) (Agilent Technologies) with mobile phase A (0.1% formic acid in water) and mobile phase B (0.1% formic acid in acetonitrile). The flow rate was 0.3 mL/min. The linear gradient was as follows: 0-3 min, 100% mobile phase A; 10-15 min, 2% mobile phase A; 15.5-21 min, 100% mobile phase A. The autosampler was set at 5° C. The injection volume was 15 μL. Mass spectra were acquired with both positive electrospray ionization at the ion spray voltage of 5500 V and negative electrospray ionization at the ion spray voltage of −4500 V. The source temperature was 450° C. The curtain gas, ion source gas 1, and ion source gas 2 were 33, 50, and 65, respectively. Multiple reaction monitoring was used to quantify the metabolites. Power analysis was not used to determine the number of replicates. Error bars represent the standard error of the mean of three biological replicates. The statistical significance of the accumulation was determined using a two sample Welch's t test (one-tailed test, assuming unequal variance) relative to the negative controls. All compounds evaluated in the biological assays were >95% pure.

CC(=O)O[C@H]1C[C@@]2(C)[C@@H](C[C@@H](O)[C@H]3[C@@]4(C)CC[C@@H](O)[C@@H](C)[C@@H]4CC[C@@]32C)/C1=C(\CCC=C(C)C)C(=O)O [FA, Fusidic acid]
activity (MIC) against a panel of 75 clinical isolates of P. aeruginosa [1]: essentially no antibacterial activity | MIC ([1]; AR Bank Isolate # 0054): > 1020 µg/mL | MIC ([1]; AR Bank Isolate # 0064): > 1020 µg/mL | MIC ([1]; AR Bank Isolate # 0090): > 1020 µg/mL | MIC ([1]; AR Bank Isolate # 0092): > 1020 µg/mL | MIC ([1]; AR Bank Isolate # 0095): > 1020 µg/mL | MIC ([1]; AR Bank Isolate # 0100): > 1020 µg/mL | MIC ([1]; AR Bank Isolate # 0103): > 1020 µg/mL | MIC ([1]; AR Bank Isolate # 0110): > 1020 µg/mL | MIC ([1]; AR Bank Isolate # 0229): > 1020 µg/mL | MIC ([1]; AR Bank Isolate # 0230): > 1020 µg/mL | MIC ([1]; AR Bank Isolate # 0231): > 1020 µg/mL | MIC ([1]; AR Bank Isolate # 0232): > 1020 µg/mL | MIC ([1]; AR Bank Isolate # 0233): > 1020 µg/mL | MIC ([1]; AR Bank Isolate # 0234): 1020 µg/mL (≈ 1980 µM) | MIC ([1]; AR Bank Isolate # 0235): > 1020 µg/mL | MIC ([1]; AR Bank Isolate # 0236): > 1020 µg/mL | MIC ([1]; AR Bank Isolate # 0237): > 1020 µg/mL | MIC ([1]; AR Bank Isolate # 0239): > 1020 µg/mL | MIC ([1]; AR Bank Isolate # 0240): > 1020 µg/mL | MIC ([1]; AR Bank Isolate # 0241): > 1020 µg/mL | MIC ([1]; AR Bank Isolate # 0242): > 1020 µg/mL | MIC ([1]; AR Bank Isolate # 0243): > 1020 µg/mL | MIC ([1]; AR Bank Isolate # 0244): > 1020 µg/mL | MIC ([1]; AR Bank Isolate # 0245): > 1020 µg/mL | MIC ([1]; AR Bank Isolate # 0246): 1020 µg/mL (≈ 1980 µM) | MIC ([1]; AR Bank Isolate # 0248): > 1020 µg/mL | MIC ([1]; AR Bank Isolate # 0250): > 1020 µg/mL | MIC ([1]; AR Bank Isolate # 0252): > 1020 µg/mL | MIC ([1]; AR Bank Isolate # 0254): > 1020 µg/mL | MIC ([1]; AR Bank Isolate # 0265): > 1020 µg/mL | MIC ([1]; AR Bank Isolate # 0763): > 1020 µg/mL | MIC ([1]; AR Bank Isolate # 0767): > 1020 µg/mL | MIC ([1]; AR Bank Isolate # 0769): > 1020 µg/mL | MIC ([1]; AR Bank Isolate # 0772): > 1020 µg/mL | MIC ([1]; Carle Isolate ID # Cl-02): 1020 µg/mL (≈ 1980 µM) | MIC ([1]; Carle Isolate ID # Cl-03): 1020 µg/mL (≈ 1980 µM) | MIC ([1]; Carle Isolate ID # Cl-04): > 1020 µg/mL | MIC ([1]; Carle Isolate ID # Cl-05): > 1020 µg/mL | MIC ([1]; Carle Isolate ID # Cl-06): > 1020 µg/mL | MIC ([1]; Carle Isolate ID # Cl-07): > 1020 µg/mL | MIC ([1]; Carle Isolate ID # Cl-08): > 1020 µg/mL | MIC ([1]; Carle Isolate ID # Cl-09): > 1020 µg/mL | MIC ([1]; Carle Isolate ID # Cl-10): > 1020 µg/mL | MIC ([1]; Carle Isolate ID # Cl-11): > 1020 µg/mL | MIC ([1]; Carle Isolate ID # Cl-12): > 1020 µg/mL | MIC ([1]; Carle Isolate ID # Cl-13): > 1020 µg/mL | MIC ([1]; Carle Isolate ID # Cl-14): > 1020 µg/mL | MIC ([1]; Carle Isolate ID # Cl-15): > 1020 µg/mL | MIC ([1]; Carle Isolate ID # Cl-19): > 1020 µg/mL | MIC ([1]; Cubist Strain ID # 996): > 1020 µg/mL | MIC ([1]; Cubist Strain ID # 997): > 1020 µg/mL | MIC ([1]; Cubist Strain ID # 998): 1020 µg/mL (≈ 1980 µM) | MIC ([1]; Cubist Strain ID # 999): > 1020 µg/mL | MIC ([1]; Cubist Strain ID # 1000): > 1020 µg/mL | MIC ([1]; Cubist Strain ID # 1001): > 1020 µg/mL | MIC ([1]; Cubist Strain ID # 1174): > 1020 µg/mL | MIC ([1]; Cubist Strain ID # 1175): > 1020 µg/mL | MIC ([1]; Cubist Strain ID # 1176): > 1020 µg/mL | MIC ([1]; Cubist Strain ID # 1280): > 1020 µg/mL | MIC ([1]; Cubist Strain ID # 1282): > 1020 µg/mL | MIC ([1]; Cubist Strain ID # 1283): > 1020 µg/mL | MIC ([1]; Cubist Strain ID # 1284): > 1020 µg/mL | MIC ([1]; Cubist Strain ID # 1586): > 1020 µg/mL | MIC ([1]; Cubist Strain ID # 1590): > 1020 µg/mL | MIC ([1]; Cubist Strain ID # 1591): > 1020 µg/mL | MIC ([1]; Cubist Strain ID # 1592): > 1020 µg/mL | MIC ([1]; Cubist Strain ID # 1905): > 1020 µg/mL | MIC ([1]; Cubist Strain ID # 1906): > 1020 µg/mL | MIC ([1]; Cubist Strain ID # 2242): > 1020 µg/mL | MIC ([1]; Cubist Strain ID # 2243): > 1020 µg/mL | MIC ([1]; Cubist Strain ID # 2244): > 1020 µg/mL | MIC ([1]; Other strains (ref.) 1113): > 1020 µg/mL | MIC ([1]; Other strains (ref.) 1727): > 1020 µg/mL | EC Accumulation (FA) [2]: 52 ± 5 nmol/1012 CFUs
